The assay deals with PGY-sRNA-26. The experiment in a line: In vivo delivery study of lipid-nucleic acid mixture (oral gavage, RT-qPCR of PGY-sRNA-26 in tissues). On the set-up: species or system mouse. To be noted: C57BL/6 mice, gavage, 100 μg lipid: 10 nmol PGY-sRNA-26, 12 hours; for delivery efficacy over each tissue and blood tested (broad-spectrum delivery): all tissues and blood tested; for oral delivery of single-stranded sRNA nucleic acids into mouse intestinal tissue: intestine. The method, then:
10 nmol of small RNA (as shown in Table 2) was dissolved in 400 μl of DEPC-treated water in a glass tube, 10 μl of the corresponding lipid stock solution was added such that the lipid mass in the system was 100 μg. The mixture was mixed thoroughly, heated in a 90° C. water bath for 15 minutes, and then cooled naturally to obtain the lipid nucleic acid mixture of lipid and small RNA.
C57BL/6 male mice, approximately 6 weeks old, weighing 20-24 g, were obtained from Beijing Vital River Laboratory Animal Technology Co., Ltd. The mice were housed in the SPF-grade animal facility at the Animal Center of the Institute of Basic Medical Sciences, Chinese Academy of Medical Sciences. The mice were fasted for 12 hours before gavage administration.
The resultant lipid nucleic acid mixture was orally administered to each mouse at a dose of 100 μg lipid: 10 nmol single-stranded 3′-methylated small RNA PGY-sRNA-26.
• 1) Blank group (n=4): mice were administered with 500 μl saline by gavage, this group served as a blank control; • 2) Free uptake group (n=4): mice were directly administered with small RNA PGY-sRNA-26 solution (10 nmol/mouse, 500 μl) by gavage, this group served as a negative control; • 3) Lipid-treated group (n=4): mice were administered with 500 μl lipid nucleic acid mixture prepared in step 2 by gavage.
After 12 hours of gavage administration, 500 μl blood from the eyeball of each mouse was sampled, added to 1.5 ml Trizol Reagent LS (purchased from Invitrogen), thoroughly mixed for lysis. 3 ml of Trizol Reagent LSwas added to tissue samples and homogenized for complete lysis, wherein the sampled tissues include heart, liver, spleen, lung, kidney, stomach, intestine, brain, blood, femur. RNA was extracted from 1 ml of the blood or the tissue lysate following the steps below: • Centrifuge at 4° C., 12,000 rpm for 5 min, discard the precipitate, transfer Trizol to a new centrifuge tube; • Add chloroform at 200 μL chloroform/mL Trizol, shake well, stand at room temperature for 5 min; • Centrifuge at 4° C., 12,000 rpm for 15 min; • Take the upper aqueous phase to another centrifuge tube, add isopropanol at 0.4 mL isopropanol/mL Trizol, mix well, and stand at low temperature for 10-20 min; • Centrifuge at 4° C., 12,000 rpm for 15 min, discard the supernatant, RNA precipitated at the bottom of the tube; • Add 1 mL of 75% ethanol, gently shake the centrifuge tube, suspend the precipitate; • Centrifuge at 4° C., 12,000 rpm for 15 min, discard the supernatant, add 1 mL of 75% ethanol, gently shake the centrifuge tube, suspend the precipitate; • Centrifuge at 4° C., 12,000 rpm for 15 min, discard the supernatant, air-dry at room temperature, dissolve RNA samples in 50 μL RNase-free H2O, measure OD value to quantify RNA concentration. 3.3 Reverse Transcription of sRNA to cDNA:
The reverse transcription system is as follows: Template RNA (200 ng/μL) 10 μL, 10×RT Buffer 2.0 μL, 25×dNTP Mix (100 mM) 0.8 μL, U6 RT stem-loop primer (10 μM) 2.0 μL, PGY-sRNA-26 RT stem-loop primer (10 μM) 2.0 μL, MultiScribe™ Reverse Transcriptase (50 U/μL) 1.0 μL, RNAse Inhibitor (40 U/μL) 1.0 μL, nuclease-free H2O 1.2 μL. After transient centrifugation, the reverse transcription system was placed in a PCR machine with the following reaction conditions: (1) 25° C., 10 min; (2) 37° C., 120 min; (3) 85° C., 5 min; (4) 4° C., stop reaction. After the reaction, add 20 μL RNAse-free ddH2O, adjust the final volume to 40 μL. The stem-loop primers used in this reverse transcription process were synthesized by Beijing Tianyi Huiyuan Biotechnology Co., Ltd. (U6 was used as a standard reference gene to calculate its relative expression, because U6 RT primer was used as a reference gene in relative quantification of RT-qPCR reactions for small RNA): […]
On the technique in general: Quantitative PCR measures a nucleic acid by following its amplification.

For the compound `C[C@H](/C=C/[C@H](C)C(C)(C)O)[C@H]1CC[C@H]2/C(=C/C=C3C[C@@H](O)C[C@H](O)C3)CCC[C@]12C` [Lipid 545], the “delivery efficacy over each tissue and blood tested (broad-spectrum delivery)” value was “exhibited the best delivery efficacy”; the “oral delivery of single-stranded sRNA nucleic acids into mouse blood” value is listed as “can effectively orally deliver”; the “oral delivery of single-stranded sRNA nucleic acids into mouse brain tissue” value is listed as “can effectively orally deliver”; the “oral delivery of single-stranded sRNA nucleic acids into mouse femur” value was “can effectively orally deliver”. Also, the “oral delivery of single-stranded sRNA nucleic acids into mouse heart tissue” value is “can effectively orally deliver”, the “oral delivery of single-stranded sRNA nucleic acids into mouse intestinal tissue” value is given as “can effectively orally deliver”, the “oral delivery of single-stranded sRNA nucleic acids into mouse kidney tissue” value is reported as “can effectively orally deliver” and the “oral delivery of single-stranded sRNA nucleic acids into mouse liver tissue” value is “can effectively orally deliver”. Moreover, the “oral delivery of single-stranded sRNA nucleic acids into mouse lung tissue” value is recorded as “can effectively orally deliver”, the “oral delivery of single-stranded sRNA nucleic acids into mouse spleen tissue” value is given as “can effectively orally deliver” and the “oral delivery of single-stranded sRNA nucleic acids into mouse stomach tissue” value is “can effectively orally deliver”.
Regarding `C[C@]12CCC(=O)C=C1CC[C@@H]1[C@@H]2CC[C@@]2(C)[C@H]1CC[C@]2(C)O` [Lipid 546], the “delivery efficacy over each tissue and blood tested (broad-spectrum delivery)” value is recorded as “exhibited the best delivery efficacy”; the “oral delivery of single-stranded sRNA nucleic acids into mouse blood” value is “can effectively orally deliver”; the “oral delivery of single-stranded sRNA nucleic acids into mouse brain tissue” value is recorded as “can effectively orally deliver”; the “oral delivery of single-stranded sRNA nucleic acids into mouse femur” value is listed as “can effectively orally deliver”. Moreover, the “oral delivery of single-stranded sRNA nucleic acids into mouse heart tissue” value is “can effectively orally deliver”, the “oral delivery of single-stranded sRNA nucleic acids into mouse intestinal tissue” value is on record as “can effectively orally deliver”, the “oral delivery of single-stranded sRNA nucleic acids into mouse kidney tissue” value is listed as “can effectively orally deliver” and the “oral delivery of single-stranded sRNA nucleic acids into mouse liver tissue” value is listed as “can effectively orally deliver”. Further, the “oral delivery of single-stranded sRNA nucleic acids into mouse lung tissue” value is listed as “can effectively orally deliver”, the “oral delivery of single-stranded sRNA nucleic acids into mouse spleen tissue” value is on record as “can effectively orally deliver” and the “oral delivery of single-stranded sRNA nucleic acids into mouse stomach tissue” value is “can effectively orally deliver”.
Turning to `C[C@H]1C[C@@H]2[C@H]([C@@H](O)C[C@@]3(C)[C@H]2CC[C@]3(O)C(=O)CO)[C@@]2(C)C=CC(=O)C=C12` [Lipid 547], the “delivery efficacy over each tissue and blood tested (broad-spectrum delivery)” value is reported as “exhibited the best delivery efficacy”; the “oral delivery of single-stranded sRNA nucleic acids into mouse blood” value is given as “can effectively orally deliver”; the “oral delivery of single-stranded sRNA nucleic acids into mouse femur” value is “can effectively orally deliver”; the “oral delivery of single-stranded sRNA nucleic acids into mouse heart tissue” value is recorded as “can effectively orally deliver”. Moreover, the “oral delivery of single-stranded sRNA nucleic acids into mouse intestinal tissue” value is on record as “can effectively orally deliver”, the “oral delivery of single-stranded sRNA nucleic acids into mouse kidney tissue” value is “can effectively orally deliver”, the “oral delivery of single-stranded sRNA nucleic acids into mouse liver tissue” value is reported as “can effectively orally deliver” and the “oral delivery of single-stranded sRNA nucleic acids into mouse lung tissue” value is “can effectively orally deliver”. For the same compound, the “oral delivery of single-stranded sRNA nucleic acids into mouse spleen tissue” value is reported as “can effectively orally deliver” and the “oral delivery of single-stranded sRNA nucleic acids into mouse stomach tissue” value is given as “can effectively orally deliver”.
In the case of `C[C@]12CC[C@H](O)C[C@@H]1CC[C@@H]1[C@@H]2CC[C@]2(C)[C@@H](O)CC[C@@H]12` [Lipid 548, 5α-androstanediol (3S,5S,8R,9S,10S,13S,14S,17S)-10,13-dimethyl-2,3,4,5,6,7,8,9,11,12,14,15,16,17-tetradecahydro-1H-cyclopenta[a]phenanthrene-3,17-diol], the “delivery efficacy over each tissue and blood tested (broad-spectrum delivery)” value is “exhibited the best delivery efficacy”; the “oral delivery of single-stranded sRNA nucleic acids into mouse blood” value is on record as “can effectively orally deliver”; the “oral delivery of single-stranded sRNA nucleic acids into mouse brain tissue” value is “can effectively orally deliver”; the “oral delivery of single-stranded sRNA nucleic acids into mouse femur” value was “can effectively orally deliver”. Also, the “oral delivery of single-stranded sRNA nucleic acids into mouse heart tissue” value was “can effectively orally deliver”, the “oral delivery of single-stranded sRNA nucleic acids into mouse intestinal tissue” value is reported as “can effectively orally deliver”, the “oral delivery of single-stranded sRNA nucleic acids into mouse kidney tissue” value was “can effectively orally deliver” and the “oral delivery of single-stranded sRNA nucleic acids into mouse liver tissue” value was “can effectively orally deliver”. For the same compound, the “oral delivery of single-stranded sRNA nucleic acids into mouse lung tissue” value is on record as “can effectively orally deliver”, the “oral delivery of single-stranded sRNA nucleic acids into mouse spleen tissue” value is “can effectively orally deliver” and the “oral delivery of single-stranded sRNA nucleic acids into mouse stomach tissue” value is given as “can effectively orally deliver”.
Take `C[C@]12CCC(=O)C=C1CC[C@@H]1[C@@H]2CC[C@@]2(C)[C@H]1CC[C@]2(O)C(=O)CO` [Lipid 549]: the “delivery efficacy over each tissue and blood tested (broad-spectrum delivery)” value is recorded as “exhibited the best delivery efficacy”; the “oral delivery of single-stranded sRNA nucleic acids into mouse blood” value is “can effectively orally deliver”; the “oral delivery of single-stranded sRNA nucleic acids into mouse brain tissue” value is given as “can effectively orally deliver”; the “oral delivery of single-stranded sRNA nucleic acids into mouse femur” value is “can effectively orally deliver”. Moreover, the “oral delivery of single-stranded sRNA nucleic acids into mouse heart tissue” value is on record as “can effectively orally deliver”, the “oral delivery of single-stranded sRNA nucleic acids into mouse intestinal tissue” value is recorded as “can effectively orally deliver”, the “oral delivery of single-stranded sRNA nucleic acids into mouse kidney tissue” value is “can effectively orally deliver” and the “oral delivery of single-stranded sRNA nucleic acids into mouse liver tissue” value is recorded as “can effectively orally deliver”. The “oral delivery of single-stranded sRNA nucleic acids into mouse lung tissue” value is on record as “can effectively orally deliver”, the “oral delivery of single-stranded sRNA nucleic acids into mouse spleen tissue” value was “can effectively orally deliver” and the “oral delivery of single-stranded sRNA nucleic acids into mouse stomach tissue” value is recorded as “can effectively orally deliver”.

The values are drawn from US20240293551A1, “USE OF ST-TYPE LIPID COMPOUNDS IN PREPARATION OF NUCLEIC ACID DELIVERY REAGENT AND RELATED PRODUCT” (INSTITUTE OF BASIC MEDICAL SCIENCES CHINESE ACADEMY OF …, priority 2021, published 2024).
